The target in one experiment is T1, human α2B adrenoceptor (Homo sapiens, UniProt P18089).
T1 construct: expressed in transfected cells
Put plainly: α2B adrenergic receptor binding. As to conditions: Table 10. An excerpt:
(§1) Other receptors: Cell membranes expressing human dopamine D1, D2, D4 and rat D3 receptors were purchased through BioSignal, Inc. (Montreal, Canada). Binding assays using the histamine H, receptor; dopamine receptors; and α1A, α1B, and α2 adrenergic receptors may be carried out according to the procedures described in U.S. Pat. No. 5,780,485, the disclosure of which is hereby incorporated by reference in its entirety into this application. Binding assays using the dopamine D5 receptor may be carried out according to the procedures described in U.S. Pat. No. 5,882,855, the disclosure of which is hereby incorporated by reference in its entirety into this application. Binding assays for the human α1D adrenergic receptor may be carried out according to the procedures described in U.S. Pat. No. 6,156,518, the disclosure of which is hereby incorporated by reference in its entirety into this application.

For the next experiment, the target named is T2, rat D3 receptor (Rattus norvegicus, UniProt P19020).
T2 construct: purchased BioSignal, Inc. (Montreal, Canada)
Put plainly: Dopamine D3 receptor binding. As to conditions: Table 10.
Description: as §1

The subject of experiment [1] is neuropathic rats (chronic constriction nerve injury). Put plainly: Chronic constriction nerve injury model of neuropathic pain: thermal hyperalgesia (Thermal Plantar Test). The format is in vivo, rat. The method, then:
The aim of this study was to assess the potential analgesic effects of Example 92 following intraperitoneal administration at the doses of 3, 10 and 30 mg/kg, respectively, in an animal model of neuropathic pain. A peripheral mononeuropathy was induced in the right hind limb of rats following a chronic constriction nerve injury (Bennett and Xie, 1988), and the development of mechanical allodynia and thermal hyperalgesia was monitored using established behavioral tests (Attal, N., et al., 1990; Hargreaves, K., et al., 1988).
Male Sprague-Dawley rats within the weight range of 200-225 g, and approximate age 7-9 weeks, were allowed to acclimate for a minimum of 6 days prior to the start of the behavioral testing.
All rats underwent a chronic constriction nerve injury, and of these, those that successfully developed allodynia and hyperalgesia were allocated to treatment groups.
There were 5 separate treatment groups (with a minimum of 10 rats per group). The treatment groups were as follows: • Group C received Morphine at 10 mg/kg (n=10) • Group D received Vehicle for Example 92* at 1 ml/kg (n=10) (* 100% DMSO) • Group E received Example 92 at 30 mg/kg (n=10) • Group F received Example 92 at 3 mg/kg (n=10) • Group G received Example 92 at 10 mg/kg (n=10)
The dose volume for all treatments was 1 ml/kg. Each rat received a single i.p. dose of the test substance, reference substance or vehicle on Day 12 PO. Test substance and vehicle dosing solutions were encoded (C-G) so that the observers were unaware of the identity of the treatment groups.
The behavioral tests (Von Frey filament and Thermal Plantar Tests—see below) were performed on all rats on 3 separate days prior to […], to establish baseline values. The pre-surgery baseline values were calculated as the mean of the last 2 days testing (the data from the first day of testing were not included as this was classed as part of the acclimating period). The sequence of tests was always mechanical allodynia (Von Frey Test) followed by thermal hyperalgesia (Thermal Plantar Test), with a minimum 5 min period allowed between the 2 tests.
Each rat was placed in a clear plastic chamber with a glass floor and allowed a short period to acclimatize to the new environment (approximately 5 min.). The animals were then challenged with a radiant Infrared (IR) heat source, directed at the plantar surface of the hind paw from below, and the withdrawal latency of both the ipsilateral and contralateral hind paws was evaluated. The infrared intensity was set at IR50 and the maximum length of exposure to the IR source was 18 s. Non-responding animals were allocated a withdrawal latency of 18 s.
The animals were surgically prepared over 5 days. […]

The target in experiment [2] is human dopamine D5 receptor (Homo sapiens, UniProt P21918). Put plainly: Dopamine D5 receptor binding. As to conditions: Table 10.
Description: as §1

A value given as a limit tells only on which side of the number the result lay.

T2 sequence (P19020 whole entry): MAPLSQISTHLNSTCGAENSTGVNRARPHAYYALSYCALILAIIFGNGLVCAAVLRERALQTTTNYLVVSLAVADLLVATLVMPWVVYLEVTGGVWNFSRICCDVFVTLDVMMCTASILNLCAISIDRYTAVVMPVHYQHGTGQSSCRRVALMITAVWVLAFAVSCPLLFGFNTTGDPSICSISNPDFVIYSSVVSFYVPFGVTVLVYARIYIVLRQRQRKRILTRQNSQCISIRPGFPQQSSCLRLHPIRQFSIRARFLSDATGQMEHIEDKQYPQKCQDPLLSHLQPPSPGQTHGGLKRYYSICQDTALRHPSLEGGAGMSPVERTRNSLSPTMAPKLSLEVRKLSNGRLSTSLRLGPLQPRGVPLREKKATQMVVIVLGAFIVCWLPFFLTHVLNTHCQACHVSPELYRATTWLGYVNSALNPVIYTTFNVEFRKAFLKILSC
Sequence of human dopamine D5 receptor (P21918 whole entry): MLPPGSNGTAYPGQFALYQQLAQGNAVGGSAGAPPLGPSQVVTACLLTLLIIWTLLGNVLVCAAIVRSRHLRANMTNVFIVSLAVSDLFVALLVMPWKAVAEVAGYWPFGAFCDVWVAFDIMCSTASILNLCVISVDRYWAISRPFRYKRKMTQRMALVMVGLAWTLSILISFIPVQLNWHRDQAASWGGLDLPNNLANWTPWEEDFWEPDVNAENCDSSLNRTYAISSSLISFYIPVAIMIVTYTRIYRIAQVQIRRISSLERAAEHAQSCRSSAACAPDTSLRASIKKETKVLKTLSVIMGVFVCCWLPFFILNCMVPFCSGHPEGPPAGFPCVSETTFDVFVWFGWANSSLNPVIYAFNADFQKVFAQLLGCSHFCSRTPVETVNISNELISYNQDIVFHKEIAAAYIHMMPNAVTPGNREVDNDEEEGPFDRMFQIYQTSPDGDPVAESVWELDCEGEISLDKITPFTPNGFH
T1 sequence (P18089 whole entry): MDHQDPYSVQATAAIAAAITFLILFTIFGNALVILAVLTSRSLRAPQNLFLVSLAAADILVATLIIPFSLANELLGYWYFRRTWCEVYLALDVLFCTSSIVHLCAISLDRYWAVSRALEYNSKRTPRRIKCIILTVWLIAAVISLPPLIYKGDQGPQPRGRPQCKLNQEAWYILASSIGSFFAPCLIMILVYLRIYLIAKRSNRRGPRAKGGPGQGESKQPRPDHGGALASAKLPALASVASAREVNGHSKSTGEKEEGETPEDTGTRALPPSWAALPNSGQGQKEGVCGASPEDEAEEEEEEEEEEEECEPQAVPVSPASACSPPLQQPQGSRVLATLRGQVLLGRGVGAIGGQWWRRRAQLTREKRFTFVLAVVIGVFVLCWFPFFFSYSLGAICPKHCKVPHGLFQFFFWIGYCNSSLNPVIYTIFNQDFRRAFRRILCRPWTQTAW

For the molecule `O=C1C(=Nc2cccc(C(F)(F)F)c2)c2ccccc2N1c1ccccc1` [Example 92, 1-PHENYL-3-[[3-(TRIFLUOROMETHYL)PHENYL]IMINO]-1,3-DIHYDRO-2H-INDOL-2-ONE], the “selectivity ratio hα2B (Ki hα2B / Ki hGAL3)” value on human α2B adrenoceptor is on record as above 100. The “selectivity ratio rD3 (Ki rD3 / Ki hGAL3)” value at rat D3 receptor was above 100. Moreover, the “responses of the uninjured (contralateral) left paw (thermal plantar) vs vehicle” value in experiment [1] (3, 10, 30 mg/kg i.p., any time point) is listed as “No significant changes”. Also, the “effect on withdrawal latency of the nerve-injured hind paw to the thermal plantar device” value in experiment [1] (3, 10 and 30 mg/kg i.p., approx. 40 and 100 min PD) is listed as “no significant effect”. Further, the “selectivity ratio hD5 (Ki hD5 / Ki hGAL3)” value in experiment [2] is recorded as above 100.

Source of the values: US7220775B2, “Compound useful for the treatment of neuropathic pain” (H. Lundbeck A/S, priority 2002, dated 2007).
